Results on 10 compounds are retold here after ChEMBL document CHEMBL1201862, “PubChem BioAssay data set” (2004).

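In this assay, cells in 96-well plates receive the compound at five concentrations for 48 hours. Endpoints are linearly interpolated between the surrounding concentrations. GI50 marks 50% less growth.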 Calls of active or inactive are those of the source. Rule as the data show it: active = GI50 up to about 1.1 µM and inactive = higher.

Some test systems named below: A498; CAKI-1; DU-145; EKVX; HCC 2998; Hs-578T; KM12; LOX IMVI; MCF7; MDA-MB-231; MDA-N; NCI-H226; NCI-H460; NCI/ADR-RES; OVCAR-4; PC-3; RXF 393; SF-268; SNB-19; SNB-75.
Holding throughout (assay): NCI-60 cell line screen, 48 h

As to `CCCCCCCCCCCCCCCCCCOCC(CCP(=O)(CP(=O)(O)O)Oc1ccccc1)OCCCCCCCCCCCCCCCCCC` (stereo not given), the GI50 with A498, with CAKI-1, in the experiment with DU-145, in the experiment with EKVX, in the experiment on HCC 2998 and with Hs-578T was > 100 µM (inactive) in each case. In addition, the GI50 in the experiment on KM12, with LOX IMVI, with MCF7, in the experiment on MDA-MB-231, in the experiment on MDA-N and with NCI-H226 was > 100 µM (inactive) throughout. Besides, the GI50 in the experiment on NCI-H460, in the experiment on NCI/ADR-RES, in the experiment with OVCAR-4, in the experiment on PC-3, in the experiment with RXF 393 and in the experiment on SF-268 was > 100 µM (inactive) in each case. For the same compound, the GI50 with SNB-19 and with SNB-75 was > 100 µM (inactive) throughout.

`Cc1ccc(NC(=O)c2cc(S(=O)(=O)Nc3n[nH]c(=O)n3-c3ccccc3)c(S)cc2Cl)cc1`: the GI50 with A498, in the experiment on CAKI-1, in the experiment with DU-145, in the experiment with EKVX, with HCC 2998 and with Hs-578T was > 100 µM (inactive) throughout. The GI50 in the experiment with KM12, in the experiment on LOX IMVI, with MCF7, with MDA-MB-231, with MDA-N and with NCI-H226 was > 100 µM (inactive) throughout. In addition, the GI50 in the experiment on NCI-H460, with NCI/ADR-RES, in the experiment on OVCAR-4, in the experiment on PC-3, in the experiment with RXF 393 and in the experiment on SF-268 was > 100 µM (inactive) throughout. For the same compound, the GI50 in the experiment on SNB-19 and in the experiment with SNB-75 was > 100 µM (inactive) throughout.

`CC(C)(C)OC(=O)NCCCCC(N)C(N)=O` (stereo not given): the GI50 is > 100 µM (inactive) in the experiment with A498; > 100 µM (inactive) in the experiment with CAKI-1; > 100 µM (inactive) in the experiment with DU-145; > 100 µM (inactive) in the experiment with EKVX; > 100 µM (inactive) in the experiment with HCC 2998; 45.7 µM (inactive) in the experiment with Hs-578T. Moreover, the GI50 in the experiment on KM12, in the experiment with LOX IMVI, in the experiment on MCF7, in the experiment with MDA-MB-231, in the experiment with MDA-N and with NCI-H226 was > 100 µM (inactive) throughout. The GI50 in the experiment on NCI-H460, in the experiment on NCI/ADR-RES, with OVCAR-4, with PC-3, with RXF 393 and with SF-268 was > 100 µM (inactive) in each case. In addition, the GI50 in the experiment with SNB-19 and with SNB-75 was > 100 µM (inactive) in each case.

As to `CC(C)/C(Cl)=N/OC(=O)Nc1cccc(C(F)(F)F)c1`, the GI50 was 18.7 µM (inactive) in the experiment on A498; 1.75 µM (inactive) in the experiment on CAKI-1; 17.3 µM (inactive) in the experiment on DU-145; 2.61 µM (inactive) in the experiment on EKVX; 15.8 µM (inactive) with HCC 2998; 9.55 µM (inactive) in the experiment with Hs-578T. Further, the GI50 in the experiment on KM12 is 15.3 µM (inactive); in the experiment with LOX IMVI, 2.51 µM (inactive); in the experiment on MCF7, 5.35 µM (inactive); in the experiment on MDA-MB-231, 6.68 µM (inactive); with MDA-N, 10.6 µM (inactive); in the experiment with NCI-H226, 12.5 µM (inactive). Moreover, the GI50 was 17.8 µM (inactive) in the experiment with NCI-H460; 5.5 µM (inactive) in the experiment with NCI/ADR-RES; 7.05 µM (inactive) with OVCAR-4; 16.2 µM (inactive) in the experiment on PC-3; 5.9 µM (inactive) with RXF 393; 23.1 µM (inactive) with SF-268. Also, the GI50 was 19 µM (inactive) with SNB-19 and 5.04 µM (inactive) with SNB-75.

For the compound `C=C(CC[C@@H](C)[C@H]1CC[C@H]2[C@@H]3C[C@@H](O)[C@H]4C[C@@H](O)CC[C@]4(CO)[C@H]3CC[C@]12C)C(C)C`, the GI50 is 6.62 µM (inactive) in the experiment on A498; 5.64 µM (inactive) in the experiment with CAKI-1; 3.48 µM (inactive) with DU-145; 2.1 µM (inactive) in the experiment on EKVX; 0.382 µM (active) in the experiment with HCC 2998; 6.18 µM (inactive) in the experiment on Hs-578T. Moreover, the GI50 with KM12 was 2.09 µM (inactive); in the experiment with LOX IMVI, 3.11 µM (inactive); with MCF7, 2.67 µM (inactive); in the experiment with MDA-MB-231, 4.17 µM (inactive); in the experiment with MDA-N, 8.49 µM (inactive); in the experiment on NCI-H226 it was 9.29 µM (inactive). In addition, the GI50 is 2.18 µM (inactive) with NCI-H460; 4.49 µM (inactive) in the experiment on NCI/ADR-RES; 6.84 µM (inactive) in the experiment on OVCAR-4; 4.94 µM (inactive) with PC-3; 3.32 µM (inactive) in the experiment on RXF 393; 6.35 µM (inactive) in the experiment on SF-268. Besides, the GI50 in the experiment on SNB-19 is 7.98 µM (inactive); in the experiment with SNB-75, 8.32 µM (inactive).

Consider `CC(Oc1ccccc1Cl)C(=O)NN1C(=O)CC(=O)N(c2ccccc2)C1=S` (stereo not given), for which the GI50 with A498 was 22.3 µM (inactive); in the experiment with CAKI-1, 41.2 µM (inactive); in the experiment with DU-145, 42.9 µM (inactive); in the experiment with EKVX it was 57.1 µM (inactive); in the experiment on HCC 2998, 82.2 µM (inactive); in the experiment on Hs-578T it was > 100 µM (inactive). Also, the GI50 in the experiment with KM12 is 60.1 µM (inactive); in the experiment on LOX IMVI it was 38.4 µM (inactive); in the experiment with MCF7, 31 µM (inactive); with MDA-MB-231, 42.7 µM (inactive); in the experiment with MDA-N, 82.2 µM (inactive); in the experiment on NCI-H226, 38.6 µM (inactive). The GI50 was 44.2 µM (inactive) with NCI-H460; 38.5 µM (inactive) in the experiment with NCI/ADR-RES; 54 µM (inactive) in the experiment on OVCAR-4; 40.8 µM (inactive) in the experiment with PC-3; 32.1 µM (inactive) in the experiment with RXF 393; 86.7 µM (inactive) with SF-268. Further, the results for the GI50 with SNB-19 and with SNB-75 were 71.1 µM (inactive) and 49.1 µM (inactive), respectively.

Regarding `C=CCN(c1cc(OC)c(NC(C)=O)cc1[N+](=O)[O-])S(C)(=O)=O`, the GI50 in the experiment on A498, in the experiment on CAKI-1, with DU-145, in the experiment on EKVX, with HCC 2998 and in the experiment on Hs-578T was > 100 µM (inactive) in each case. Besides, the GI50 in the experiment on KM12, with LOX IMVI, in the experiment on MCF7, in the experiment on MDA-MB-231, in the experiment with MDA-N and with NCI-H226 was > 100 µM (inactive) in each case. Further, the GI50 in the experiment with NCI-H460, with NCI/ADR-RES, in the experiment on OVCAR-4, in the experiment on PC-3, in the experiment with RXF 393 and in the experiment with SF-268 was > 100 µM (inactive) throughout. The GI50 in the experiment with SNB-19 and with SNB-75 was > 100 µM (inactive) each time.

On to `Cc1c(C)c(S(=O)(=O)N(CCCN)OCCCN)c(C)c2c1OC(C)(C)C2`, for which the GI50 with A498 is 18.8 µM (inactive); in the experiment on CAKI-1 it was 34.4 µM (inactive); with DU-145 it was 30.6 µM (inactive); in the experiment on EKVX, 16.3 µM (inactive); with HCC 2998, 19.5 µM (inactive); in the experiment on Hs-578T, 18.8 µM (inactive). In addition, the GI50 in the experiment on KM12 was 17.6 µM (inactive); in the experiment with LOX IMVI, 19.6 µM (inactive); with MCF7, 20.5 µM (inactive); with MDA-MB-231, 14.8 µM (inactive); in the experiment on MDA-N, 19 µM (inactive); in the experiment with NCI-H226, 72.1 µM (inactive). Moreover, the GI50 in the experiment with NCI-H460 is 36.8 µM (inactive); in the experiment on NCI/ADR-RES, > 100 µM (inactive); in the experiment on OVCAR-4, 30.7 µM (inactive); in the experiment with PC-3, 17.7 µM (inactive); with RXF 393, 15.2 µM (inactive); with SF-268, 27.6 µM (inactive). The figures for the GI50 with SNB-19 and in the experiment with SNB-75 were 15.4 µM (inactive) and 17.3 µM (inactive), respectively.

For `NC(Cc1ccccc1)C(=O)NC(Cc1ccccc1)NC(=O)C(Cc1c[nH]c2ccccc12)C(=O)O` (stereo not given), the GI50 in the experiment on A498 is > 100 µM (inactive); in the experiment on CAKI-1, > 100 µM (inactive); in the experiment with DU-145, > 100 µM (inactive); in the experiment on EKVX, > 100 µM (inactive); in the experiment with HCC 2998, > 100 µM (inactive); in the experiment with Hs-578T, 37.7 µM (inactive). In addition, the GI50 in the experiment on KM12, in the experiment on LOX IMVI, in the experiment with MCF7, in the experiment with MDA-MB-231, with MDA-N and with NCI-H226 was > 100 µM (inactive) each time. In addition, the GI50 with NCI-H460, in the experiment on NCI/ADR-RES, in the experiment with OVCAR-4, in the experiment on PC-3, with RXF 393 and in the experiment with SF-268 was > 100 µM (inactive) in each case. Besides, the GI50 in the experiment on SNB-19 and in the experiment with SNB-75 was > 100 µM (inactive) in each case.

Take `Cc1ccc2c(c1)C1(C)OC(C=CC1=O)O2` (stereo not given): the GI50 in the experiment on A498 is 3.89 µM (inactive); in the experiment with CAKI-1 it was 0.31 µM (active); in the experiment with DU-145 it was 2.72 µM (inactive); in the experiment with EKVX it was 2.45 µM (inactive); in the experiment with HCC 2998 it was 2.84 µM (inactive); in the experiment with Hs-578T, 2.9 µM (inactive). Also, the GI50 in the experiment with KM12 is 0.736 µM (active); in the experiment with LOX IMVI it was 0.573 µM (active); with MCF7, 1.27 µM (inactive); in the experiment with MDA-MB-231, 0.564 µM (active); in the experiment on MDA-N it was 0.18 µM (active); in the experiment with NCI-H226, 3.02 µM (inactive). Moreover, the GI50 in the experiment with NCI-H460 was 2.21 µM (inactive); in the experiment with NCI/ADR-RES, 0.0681 µM (active); in the experiment with OVCAR-4, 0.774 µM (active); in the experiment with PC-3 it was 0.499 µM (active); in the experiment on RXF 393, 0.445 µM (active); in the experiment with SF-268, 1.41 µM (inactive). Moreover, the GI50 with SNB-19 is 2.75 µM (inactive); in the experiment with SNB-75 it was 1.68 µM (inactive).
